Laboratory results taken from patent publication US4319028A, “7-(2-(Substituted benzoyl)amino)acetamido)cephalosporins” (Eli Lilly and Company, priority 1976, dated 1982).
In brackets after ≈: the same amount, converted by molar mass. Where two headings read alike, the source gives them in different places.

Columns and labels:
[1] = tested on: Pseudomonas Aeruginosa; test: Antibiotic activity (MIC), Gradient Plate in vitro method, Pseudomonas Aeruginosa; type: cell-based; details: read-out: Minimum Inhibitory Concentration
Description: (§1) The values in the table are the minimum inhibitory concentrations (MIC) for the test compounds against the indicated microorganisms. The MIC values were obtained in the Gradient Plate in vitro method for determining antibiotic activity.

[2] = tested on: Klebsiella pneumoniae; test: Antibiotic activity (MIC), Gradient Plate in vitro method, Klebsiella pneumoniae; type: cell-based; details: read-out: Minimum Inhibitory Concentration
Description: as §1

[3] = tested on: V32 (penicillin resistant Staphylococcus); test: Antibiotic activity (MIC), Gradient Plate in vitro method, V32; type: cell-based; details: read-out: Minimum Inhibitory Concentration
Description: as §1, with “The antibiotic activity of the cephalosporin compounds of the present invention is illustrated by the data presented in Table I for representative compounds. The values” for “The values”
(§2) ^1 Test organisms V41, V32, and V84 are penicillin resistant

[4] = tested on: Shigella sp.; test: Antibiotic activity (MIC), Gradient Plate in vitro method, Shigella sp.; type: cell-based; details: read-out: Minimum Inhibitory Concentration
Description: as §1, with “The antibiotic activity of the cephalosporin compounds of the present invention is illustrated by the data presented in Table I for representative compounds. The values” for “The values”

[5] = tested on: Serratia marcescens; test: Antibiotic activity (MIC), Gradient Plate in vitro method, Serratia marcescens; type: cell-based; details: read-out: Minimum Inhibitory Concentration
Description: as §1, with “The antibiotic activity of the cephalosporin compounds of the present invention is illustrated by the data presented in Table I for representative compounds. The values” for “The values”

[6] = tested on: V84 (penicillin resistant Staphylococcus); test: Antibiotic activity (MIC), Gradient Plate in vitro method, V84; type: cell-based; details: read-out: Minimum Inhibitory Concentration
Description: as §1, with “The antibiotic activity of the cephalosporin compounds of the present invention is illustrated by the data presented in Table I for representative compounds. The values” for “The values”
as §2

[7] = Titration (pKa); type: physicochemical; details: 66% dmf-34% h2o, titration (66% DMF-34% H2O)
[8] = tested on: Salmonella heidelberg; test: Antibiotic activity (MIC), Gradient Plate in vitro method, Salmonella heidelberg; type: cell-based; details: Salmonella enterica, read-out: Minimum Inhibitory Concentration
Description: as §1

[9] = tested on: Escherichia coli; test: Antibiotic activity (MIC), Gradient Plate in vitro method, Escherichia coli; type: cell-based; details: read-out: Minimum Inhibitory Concentration
Description: as §1

[10] = tested on: V41 (penicillin resistant Staphylococcus); test: Antibiotic activity (MIC), Gradient Plate in vitro method, V41; type: cell-based; details: read-out: Minimum Inhibitory Concentration
Description: as §1, with “The antibiotic activity of the cephalosporin compounds of the present invention is illustrated by the data presented in Table I for representative compounds. The values” for “The values”
as §2

[11] = tested on: X466 (methicillin resistant Staphylococcus); test: Antibiotic activity (MIC), Gradient Plate in vitro method, X466; type: cell-based; details: read-out: Minimum Inhibitory Concentration
Description: The antibiotic activity of the cephalosporin compounds of the present invention is illustrated by the data presented in Table I for representative compounds. The values in the table are the minimum inhibitory concentrations (MIC) for the test compounds against the indicated microorganisms. The MIC values were obtained in the Gradient Plate in vitro method for determining antibiotic activity. […]

[12] = tested on: Aerobacter Aerogenes; test: Antibiotic activity (MIC), Gradient Plate in vitro method, Aerobacter Aerogenes; type: cell-based; details: Klebsiella aerogenes, read-out: Minimum Inhibitory Concentration
Description: as §1

[13] = Gradient Plate in vitro, V32, penicillin resistant Staphylococcus
[14] = Gradient Plate in vitro, V84, penicillin resistant Staphylococcus
[15] = first pKa, read-out: pKa (first value)
[16] = second pKa, read-out: pKa (second value)
[17] = third pKa, read-out: pKa (third value)
[18] = Gradient Plate in vitro, V41, penicillin resistant Staphylococcus

**Q.** For `Cn1nnnc1SCC1=C(C(=O)O)N2C(=O)C(NC(=O)[C@H](NC(=O)c3ccc(O)cc3O)c3ccc(O)cc3)C2SC1` (stereo partly drawn) [Example 17, 7-[D-[2-(4-Hydroxyphenyl)-2-[(2,4-dihydroxybenzoyl)-amino]-acetyl]amino]-3-[[(1-methyltetrazol-5-yl)thio]-methyl]-3-cephem-4-carboxylic acid], which MIC [1] is on record?
**A.** The MIC was 92 µg/mL (≈ 150 µM).

**Q.** What about the MIC [2] of the same compound?
**A.** Its MIC is 15.5 µg/mL (≈ 25.3 µM).

**Q.** What about the MIC [3, 13] of the same compound?
**A.** Its MIC is 3.5 µg/mL (≈ 5.7 µM).

**Q.** What about the MIC [4] of the same compound?
**A.** Its MIC is 9.2 µg/mL (≈ 15 µM).

**Q.** And the MIC [5]?
**A.** The MIC was > 200 µg/mL.

**Q.** And the MIC [6, 14]?
**A.** The MIC was 2.4 µg/mL (≈ 3.91 µM).

**Q.** What about the pKa [7, 15] of the same compound?
**A.** The pKa was 4.97.

**Q.** What about the pKa [7, 16] of the same compound?
**A.** The pKa was 9.58.

**Q.** And the pKa [7, 17]?
**A.** Its pKa is 12.1.

**Q.** What about the MIC [8] of the same compound?
**A.** The MIC was 14 µg/mL (≈ 22.8 µM).

**Q.** And the MIC [9]?
**A.** Its MIC is 18 µg/mL (≈ 29.3 µM).

**Q.** And the MIC ([10]; Staphylococcus)?
**A.** Its MIC is 4 µg/mL (≈ 6.52 µM).

**Q.** And the MIC [11]?
**A.** The MIC was 102 µg/mL (≈ 166 µM).

**Q.** What about the MIC [12] of the same compound?
**A.** Its MIC is 36 µg/mL (≈ 58.7 µM).

**Q.** Which results are given for `Cn1nnnc1SCC1=C(C(=O)O)N2C(=O)C(NC(=O)[C@H](NC(=O)c3cc(O)cc(O)c3)c3ccc(O)cc3)C2SC1` (stereo partly drawn) [Example 16, 7-[D-[2-(4-Hydroxyphenyl)-2-[(3,5-dihydroxybenzoyl)-amino]acetyl]amino]-3-[[(1-methyltetrazol-5-yl)thio]-methyl]-3-cephem-4-carboxylic acid]?
**A.** MIC [1]: > 200 µg/mL; MIC [2]: 17.4 µg/mL (≈ 28.4 µM); MIC [3, 13]: 1.9 µg/mL (≈ 3.1 µM); MIC [4]: 9.8 µg/mL (≈ 16 µM); MIC [5]: > 200 µg/mL; MIC [6, 14]: 2.7 µg/mL (≈ 4.4 µM); pKa [7, 15]: 5.22; pKa [7, 16]: 11.7; pKa [7, 17]: ≥ 12; MIC [8]: 8.1 µg/mL (≈ 13.2 µM); MIC [9]: 16.5 µg/mL (≈ 26.9 µM); MIC [10, 18]: 4.5 µg/mL (≈ 7.33 µM); MIC [11]: 112 µg/mL (≈ 183 µM); MIC [12]: 22 µg/mL (≈ 35.9 µM)

**Q.** Which MIC [1] does the source give for `Cn1nnnc1SCC1=C(C(=O)O)N2C(=O)C(NC(=O)[C@H](NC(=O)c3ccc(O)c(O)c3)c3ccc(O)cc3)C2SC1` (stereo partly drawn) [Example 2, 7-[D-[2-(4-Hydroxyphenyl)-2-[(3,4-dihydroxybenzoyl)amino]acetyl]amino]-3-[[(1-methyltetrazol-5-yl)thio]methyl]-3-cephem-4-carboxylic acid] here?
**A.** The MIC was 4.9 µg/mL (≈ 7.99 µM).

**Q.** What about the MIC [2] of the same compound?
**A.** Its MIC is 0.8 µg/mL (≈ 1.3 µM).

**Q.** What about the MIC [3, 13] of the same compound?
**A.** The MIC was 3.8 µg/mL (≈ 6.19 µM).

**Q.** What about the MIC [4] of the same compound?
**A.** The MIC was 1 µg/mL (≈ 1.63 µM).

**Q.** And the MIC [5]?
**A.** Its MIC is > 200 µg/mL.

**Q.** And the MIC [6, 14]?
**A.** Its MIC is 3.2 µg/mL (≈ 5.21 µM).

**Q.** And the pKa [7, 15]?
**A.** The pKa was 4.1.

**Q.** And the pKa [7, 16]?
**A.** Its pKa is 10.9.

**Q.** What about the MIC [8] of the same compound?
**A.** The MIC was 0.2 µg/mL (≈ 0.326 µM).

**Q.** And the MIC [9]?
**A.** The MIC was 8.5 µg/mL (≈ 13.9 µM).

**Q.** And the MIC [10, 18]?
**A.** Its MIC is 3.6 µg/mL (≈ 5.87 µM).

**Q.** What about the MIC [11] of the same compound?
**A.** The MIC was 8.4 µg/mL (≈ 13.7 µM).

**Q.** What about the MIC [12] of the same compound?
**A.** Its MIC is 4 µg/mL (≈ 6.52 µM).

**Q.** Which results are given for `Cc1nnc(SCC2=C(C(=O)O)N3C(=O)C(NC(=O)[C@H](NC(=O)c4cccc(O)c4)c4ccc(O)cc4)C3SC2)s1` (stereo partly drawn) [Example 10, 7-[D-[2-(4-Hydroxyphenyl)-2-[(3-hydroxybenzoyl)amino]-acetyl]amino]-3-[[(5-methyl-1,3,4-thiadiazol-2-yl)thio]-methyl]-3-cephem-4-carboxylic acid]?
**A.** MIC [1]: > 200 µg/mL; MIC [2]: 16.8 µg/mL (≈ 27.4 µM); MIC ([3]; Staphylococcus): 1 µg/mL (≈ 1.63 µM); MIC [4]: 10.4 µg/mL (≈ 16.9 µM); MIC [5]: > 200 µg/mL; MIC ([6]; Staphylococcus): 1 µg/mL (≈ 1.63 µM); pKa [7, 15]: 5.02; pKa [7, 16]: 11.9; MIC [8]: 26 µg/mL (≈ 42.4 µM); MIC [9]: 28.8 µg/mL (≈ 46.9 µM); MIC ([10]; Staphylococcus): 1 µg/mL (≈ 1.63 µM); MIC [11]: 92 µg/mL (≈ 150 µM); MIC [12]: 65.5 µg/mL (≈ 107 µM)

**Q.** Which MIC [1] does the source give for `Cn1nnnc1SCC1=C(C(=O)O)N2C(=O)C(NC(=O)[C@H](NC(=O)c3cccc(O)c3O)c3ccc(O)cc3)C2SC1` (stereo partly drawn) [Example 3, 7-[D-[2-(4-Hydroxyphenyl)-2-[(2,3-dihydroxybenzoyl)amino]acetyl]amino]-3-[[(1-methyltetrazol-5-yl)thio]methyl]-3-cephem-4-carboxylic acid] here?
**A.** Its MIC is 5.3 µg/mL (≈ 8.64 µM).

**Q.** And the MIC [2]?
**A.** The MIC was 4.1 µg/mL (≈ 6.68 µM).

**Q.** What about the MIC [3, 13] of the same compound?
**A.** Its MIC is 23 µg/mL (≈ 37.5 µM).

**Q.** What about the MIC [4] of the same compound?
**A.** Its MIC is 7 µg/mL (≈ 11.4 µM).

**Q.** And the MIC [5]?
**A.** Its MIC is 80 µg/mL (≈ 130 µM).

**Q.** And the MIC [6, 14]?
**A.** The MIC was 22 µg/mL (≈ 35.9 µM).

**Q.** And the pKa [7, 15]?
**A.** The pKa was 5.02.

**Q.** What about the pKa [7, 16] of the same compound?
**A.** The pKa was 8.83.

**Q.** And the MIC [8]?
**A.** Its MIC is 1 µg/mL (≈ 1.63 µM).

**Q.** What about the MIC [9] of the same compound?
**A.** The MIC was 13.2 µg/mL (≈ 21.5 µM).

**Q.** What about the MIC [10, 18] of the same compound?
**A.** Its MIC is 23 µg/mL (≈ 37.5 µM).

**Q.** And the MIC [11]?
**A.** Its MIC is 130 µg/mL (≈ 212 µM).

**Q.** What about the MIC [12] of the same compound?
**A.** Its MIC is 6.6 µg/mL (≈ 10.8 µM).

**Q.** With `Cn1nnnc1SCC1=C(C(=O)O)N2C(=O)C(NC(=O)[C@H](NC(=O)c3cccc(O)c3O)c3ccccc3)C2SC1` (stereo partly drawn) [Example 1, 7-[D-[2-Phenyl-2-[(2,3-dihydroxybenzoyl)amino]acetyl]amino]-3-[[(1-methyltetrazol-5-yl)thio]methyl]-3-cephem-4-carboxylic acid] as the compound, how does the MIC [1] read?
**A.** The MIC was 13.8 µg/mL (≈ 23.1 µM).

**Q.** And the MIC [2]?
**A.** Its MIC is 10 µg/mL (≈ 16.7 µM).

**Q.** What about the MIC [3, 13] of the same compound?
**A.** Its MIC is 132 µg/mL (≈ 221 µM).

**Q.** And the MIC [4]?
**A.** The MIC was 3.7 µg/mL (≈ 6.19 µM).

**Q.** And the MIC [5]?
**A.** Its MIC is 16.4 µg/mL (≈ 27.4 µM).

**Q.** What about the MIC [6, 14] of the same compound?
**A.** The MIC was 10.3 µg/mL (≈ 17.2 µM).

**Q.** And the pKa [7, 15]?
**A.** Its pKa is 5.31.

**Q.** What about the pKa [7, 16] of the same compound?
**A.** The pKa was 8.73.

**Q.** What about the MIC [8] of the same compound?
**A.** The MIC was 0.5 µg/mL (≈ 0.837 µM).

**Q.** What about the MIC [9] of the same compound?
**A.** The MIC was 14.8 µg/mL (≈ 24.8 µM).

**Q.** And the MIC [10, 18]?
**A.** Its MIC is 15.1 µg/mL (≈ 25.3 µM).

**Q.** What about the MIC [11] of the same compound?
**A.** The MIC was 136 µg/mL (≈ 228 µM).

**Q.** And the MIC [12]?
**A.** Its MIC is 5.4 µg/mL (≈ 9.04 µM).
